Assay results reported in ChEMBL document CHEMBL4813985, “Lead optimization generates selenium-containing miconazole CYP51 inhibitors with improved pharmacological profile for the treatment of fungal infections” (Eur J Med Chem, 2021).
pIC50: −log10 of the molar value. Values after ≈ are worked out from the molar mass of the structure shown.

Experiments:
[1] = molecular target: T1, Lanosterol 14-alpha demethylase (Candida albicans (strain SC5314 / ATCC MYA-2876) (Yeast), UniProt P10613); test: Inhibition of CYP51 in Candida albicans ATCC SC5314 assessed as lanosterol level at 2 ug/ml after 16 hrs by GC-MS analysis (reference value: 1.7%); set-up: scale not given: the % may be the effect or the level left; settings: candida albicans sc5314, 16 h, at 2 µg/mL
[2] = Metabolic stability in mouse liver microsomes assessed as half life; type: ADME, Microsome
[3] = molecular target: T1, Lanosterol 14-alpha demethylase; test: Inhibition of CYP51 in Candida albicans ATCC SC5314 assessed as Obtusifoliol level at 0.5 ug/ml after 16 hrs by GC-MS analysis (reference value: 0%); set-up: scale not given: the % may be the effect or the level left; settings: candida albicans sc5314, 16 h, at 0.5 µg/mL
Pichia kudriavzevii = test: Antifungal activity against Candida krusei AS2.1045 measured after 24 hrs by broth microdilution assay; type: functional
[4] = molecular target: T1, Lanosterol 14-alpha demethylase; test: Inhibition of CYP51 in Candida albicans ATCC SC5314 assessed as Obtusifoliol level at 0.03125 ug/ml after 16 hrs by GC-MS analysis (reference value: 0%); set-up: scale not given: the % may be the effect or the level left; settings: candida albicans sc5314, 16 h, at 0.03125 µg/mL
Candida parapsilosis = test: Antifungal activity against Candida parapsilosis ATCC 22019 measured after 24 hrs by broth microdilution assay; type: functional; settings: Lodderomyces parapsilosis
[5] = Hemolytic activity in rabbit RBC assessed as hemolysis ratio at 2 ug/ml measured after 3 hrs by microplate reader assay relative to control; type: ADME, cell-based, Oryctolagus cuniculus, Erythrocyte; settings: rabbit red blood cells (erythrocytes), at 2 µg/mL, read-out: Activity
[6] = molecular target: T1, Lanosterol 14-alpha demethylase; test: Inhibition of CYP51 in Candida albicans ATCC SC5314 assessed as Obtusifoliol level at […] ug/ml after 16 hrs by GC-MS analysis (reference value: 0%); set-up: scale not given: the % may be the effect or the level left; settings: candida albicans sc5314, 16 h, dose 0.125 µg/ml
[7] = molecular target: T1, Lanosterol 14-alpha demethylase; test: Inhibition of CYP51 in Candida albicans ATCC SC5314 assessed as Obtusifoliol level at 8 ug/ml after 16 hrs by GC-MS analysis (reference value: 0%); set-up: scale not given: the % may be the effect or the level left; settings: candida albicans sc5314, 16 h, at 8 µg/mL
MDA-MB-231 = test: Cytotoxicity against human MDA-MB-231 cells assessed as reduction in cell viability incubated for 96 hrs by MTT assay; settings: MDA-MB-231, 96 h
[8] = molecular target: T1, Lanosterol 14-alpha demethylase; test: Inhibition of CYP51 in Candida albicans ATCC SC5314 assessed as lanosterol level at 8 ug/ml after 16 hrs by GC-MS analysis (reference value: 1.7%); set-up: scale not given: the % may be the effect or the level left; settings: candida albicans sc5314, 16 h, at 8 µg/mL
Nakaseomyces glabratus = test: Antifungal activity against Candida glabrata measured after 24 hrs by broth microdilution assay; type: functional
Candida albicans [9] = test: Antifungal activity against Candida albicans CPCC400616 measured after 24 hrs by broth microdilution assay; type: functional
[10] = Hemolytic activity in rabbit RBC assessed as hemolysis ratio at 4 ug/ml measured after 3 hrs by microplate reader assay relative to control; type: ADME, cell-based, Oryctolagus cuniculus, Erythrocyte; settings: rabbit red blood cells (erythrocytes), at 4 µg/mL, read-out: Activity
Candida albicans [11] = test: Anti-biofilm activity in Candida albicans CPCC400616 assessed as inhibition of biofilm formation incubated for 24 hrs with 6 hrs precultured fungal suspension by XTT assay; type: functional
[12] = molecular target: T1, Lanosterol 14-alpha demethylase; test: Inhibition of CYP51 in Candida albicans ATCC SC5314 assessed as ergosterol level at […] ug/ml after 16 hrs by GC-MS analysis (reference value: 98.3%); set-up: scale not given: the % may be the effect or the level left; settings: candida albicans sc5314, 16 h, dose 0.125 µg/ml
Candida albicans [13] = test: Fungicidal activity against Candida albicans CPCC400616 assessed as fungal killing incubated for 48 hrs followed by culturing on PDA plate for 24 hrs; type: functional; settings: time 72 hrs
[14] = molecular target: T1, Lanosterol 14-alpha demethylase; test: Inhibition of CYP51 in Candida albicans ATCC SC5314 assessed as ergosterol level at 2 ug/ml after 16 hrs by GC-MS analysis (reference value: 98.3%); set-up: scale not given: the % may be the effect or the level left; settings: candida albicans sc5314, 16 h, at 2 µg/mL
Candida albicans [15] = test: Anti-biofilm activity in Candida albicans CPCC400616 assessed as inhibition of biofilm formation incubated for 24 hrs with 1.5 hrs precultured fungal suspension by XTT assay; type: functional
Candida albicans [16] = test: Antifungal activity against Candida albicans ATCC SC5314 measured after 24 hrs by broth microdilution assay; type: functional
[17] = Hemolytic activity in rabbit RBC assessed as hemolysis ratio at 16 ug/ml measured after 3 hrs by microplate reader assay relative to control; type: ADME, cell-based, Oryctolagus cuniculus, Erythrocyte; settings: rabbit red blood cells (erythrocytes), at 16 µg/mL, read-out: Activity
[18] = molecular target: T1, Lanosterol 14-alpha demethylase; test: Inhibition of CYP51 in Candida albicans ATCC SC5314 assessed as Eburicol level at 8 ug/ml after 16 hrs by GC-MS analysis (reference value: 0%); set-up: scale not given: the % may be the effect or the level left; settings: candida albicans sc5314, 16 h, at 8 µg/mL
[19] = Metabolic stability in mouse liver microsomes assessed as clearance; type: ADME, Microsome; settings: read-out: CLH
[Candida] zeylanoides = Antifungal activity against Candida zeylanoides CMGCC2.3739 measured after 24 hrs by broth microdilution assay; type: functional; settings: Dujonia zeylanoides
[20] = molecular target: T1, Lanosterol 14-alpha demethylase; test: Inhibition of CYP51 in Candida albicans ATCC SC5314 assessed as ergosterol level at 0.03125 ug/ml after 16 hrs by GC-MS analysis (reference value: 98.3%); set-up: scale not given: the % may be the effect or the level left; settings: candida albicans sc5314, 16 h, at 0.03125 µg/mL
[21] = molecular target: T1, Lanosterol 14-alpha demethylase; test: Inhibition of CYP51 in Candida albicans ATCC SC5314 assessed as Obtusifoliol level at 2 ug/ml after 16 hrs by GC-MS analysis (reference value: 0%); set-up: scale not given: the % may be the effect or the level left; settings: candida albicans sc5314, 16 h, at 2 µg/mL
Aspergillus fumigatus = test: Antifungal activity against Aspergillus fumigatus CMGCC3.7795 measured after 72 hrs by broth microdilution assay; type: functional
[22] = Hemolytic activity in rabbit RBC assessed as hemolysis ratio at 1 ug/ml measured after 3 hrs by microplate reader assay relative to control; type: ADME, cell-based, Oryctolagus cuniculus, Erythrocyte; settings: rabbit red blood cells (erythrocytes), at 1 µg/mL, read-out: Activity
[23] = molecular target: T1, Lanosterol 14-alpha demethylase; test: Inhibition of CYP51 in Candida albicans ATCC SC5314 assessed as lanosterol level at 0.03125 ug/ml after 16 hrs by GC-MS analysis (reference value: 1.7%); set-up: scale not given: the % may be the effect or the level left; settings: candida albicans sc5314, 16 h, at 0.03125 µg/mL
[24] = molecular target: T1, Lanosterol 14-alpha demethylase; test: Inhibition of CYP51 in Candida albicans ATCC SC5314 assessed as Eburicol level at […] ug/ml after 16 hrs by GC-MS analysis (reference value: 0%); set-up: scale not given: the % may be the effect or the level left; settings: candida albicans sc5314, 16 h, dose 0.125 µg/ml
PC-3 = test: Cytotoxicity against human PC3 cells assessed as reduction in cell viability incubated for 96 hrs by MTT assay; type: cell-based; settings: PC-3, 96 h, read-out: IC50
Candida albicans [25] = test: Anti-biofilm activity in Candida albicans CPCC400616 assessed as inhibition of biofilm formation incubated for 24 hrs with 24 hrs precultured fungal suspension by XTT assay; type: functional
[26] = molecular target: T1, Lanosterol 14-alpha demethylase; test: Inhibition of CYP51 in Candida albicans ATCC SC5314 assessed as ergosterol level at 8 ug/ml after 16 hrs by GC-MS analysis (reference value: 98.3%); set-up: scale not given: the % may be the effect or the level left; settings: candida albicans sc5314, 16 h, at 8 µg/mL
[27] = molecular target: T1, Lanosterol 14-alpha demethylase; test: Inhibition of CYP51 in Candida albicans ATCC SC5314 assessed as Eburicol level at 0.03125 ug/ml after 16 hrs by GC-MS analysis (reference value: 0%); set-up: scale not given: the % may be the effect or the level left; settings: candida albicans sc5314, 16 h, at 0.03125 µg/mL
[28] = Hemolytic activity in rabbit RBC assessed as hemolysis ratio at 8 ug/ml measured after 3 hrs by microplate reader assay relative to control; type: ADME, cell-based, Oryctolagus cuniculus, Erythrocyte; settings: rabbit red blood cells (erythrocytes), at 8 µg/mL, read-out: Activity

T1 sequence (P10613 whole entry): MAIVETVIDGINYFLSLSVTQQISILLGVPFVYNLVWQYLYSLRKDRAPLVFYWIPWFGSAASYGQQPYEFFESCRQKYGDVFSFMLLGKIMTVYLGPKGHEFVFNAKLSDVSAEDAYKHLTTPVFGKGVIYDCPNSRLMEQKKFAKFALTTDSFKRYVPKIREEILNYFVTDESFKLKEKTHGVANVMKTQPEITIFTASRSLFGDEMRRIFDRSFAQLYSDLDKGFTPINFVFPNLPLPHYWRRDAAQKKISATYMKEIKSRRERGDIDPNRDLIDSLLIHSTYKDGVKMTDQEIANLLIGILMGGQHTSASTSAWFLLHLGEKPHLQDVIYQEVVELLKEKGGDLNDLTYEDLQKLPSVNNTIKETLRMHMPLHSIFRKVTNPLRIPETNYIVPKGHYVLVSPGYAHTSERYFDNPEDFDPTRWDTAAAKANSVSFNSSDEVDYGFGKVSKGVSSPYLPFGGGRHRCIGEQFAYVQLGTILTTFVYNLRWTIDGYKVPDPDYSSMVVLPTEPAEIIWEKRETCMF

Structure (SMILES)	Activity [1] [%]	half-life [2] [min]	Activity [3] [%]	MIC (Pichia kudriavzevii) [µg/mL]	Activity [4] [%]	MIC (Candida parapsilosis) [µg/mL]	hemolysis at 3 h, 2 ug/ml [5] [%]	Activity [6] [%]	Activity [7] [%]	pIC50 (MDA-MB-231)	Activity [8] [%]	MIC (Nakaseomyces glabratus) [µg/mL]	MIC (Candida albicans [9]) [µg/mL]	hemolysis at 3 h, 4 ug/ml [10] [%]	MIC50 (Candida albicans [11]) [µg/mL]	MIC80 (Candida albicans [11]) [µg/mL]	Activity [12] [%]	MFC99 (Candida albicans [13]) [µg/mL]	Activity [14] [%]	MIC50 (Candida albicans [15]) [µg/mL]	other results
Fc1ccc([Se]C(Cn2ccnc2)c2ccc(F)cc2F)cc1 (stereo unspecified)	9	19.4	9.9	0.5 (≈ 1.31 µM)	17	0.03 (≈ 0.0787 µM)	0	11.1	10.2	4.40	5.7	1 (≈ 2.62 µM)	0.25 (≈ 0.656 µM)	0	64 (≈ 168 µM)	128 (≈ 336 µM)	5.8	1 (≈ 2.62 µM)	2.2	4 (≈ 10.5 µM)	MIC80 (Candida albicans [15]): 8 µg/mL (≈ 21 µM); MIC (Candida albicans [16]): 0.02 µg/mL (≈ 0.0525 µM); hemolysis at 3 h, 16 ug/ml [17]: 100%; Activity [18]: 82%; CLint scaled [19]: 282 mL/min/kg; MIC ([Candida] zeylanoides): 0.25 µg/mL (≈ 0.656 µM); Activity [20]: 8.7%; Activity [21]: 10.8%; MIC (Aspergillus fumigatus): 4 µg/mL (≈ 10.5 µM); hemolysis at 3 h, 1 ug/ml [22]: 0%; Activity [23]: 4.1%; Activity [24]: 73.2%; pIC50 (PC-3): 4.26; MIC50 (Candida albicans [25]): > 128 µg/mL; MIC80 (Candida albicans [25]): > 128 µg/mL; Activity [26]: 2.1%; Activity [27]: 70.2%; hemolysis at 3 h, 8 ug/ml [28]: 0.33%
Clc1ccc(COC(Cn2ccnc2)c2ccc(Cl)cc2Cl)c(Cl)c1 (stereo unspecified) [MICONAZOLE]	13.6	8.3	9	0.5 (≈ 1.2 µM)	7.2	0.25 (≈ 0.601 µM)	8.55	17.4	7.8	4.77	7.4	0.5 (≈ 1.2 µM)	0.25 (≈ 0.601 µM)	81.8	> 128	> 128	8.3	2 (≈ 4.81 µM)	5.2	16 (≈ 38.4 µM)	MIC80 (Candida albicans [15]): 128 µg/mL (≈ 308 µM); MIC (Candida albicans [16]): 0.03 µg/mL (≈ 0.0721 µM); hemolysis at 3 h, 16 ug/ml [17]: 94%; Activity [18]: 80.7%; CLint scaled [19]: 660 mL/min/kg; MIC ([Candida] zeylanoides): 1 µg/mL (≈ 2.4 µM); Activity [20]: 12.2%; Activity [21]: 6.1%; MIC (Aspergillus fumigatus): 2 µg/mL (≈ 4.81 µM); hemolysis at 3 h, 1 ug/ml [22]: 0.16%; Activity [23]: 10%; Activity [24]: 64.8%; pIC50 (PC-3): 4.87; MIC50 (Candida albicans [25]): > 128 µg/mL; MIC80 (Candida albicans [25]): > 128 µg/mL; Activity [26]: 4.1%; Activity [27]: 70.6%; hemolysis at 3 h, 8 ug/ml [28]: 87.3%
